# Key:
# CHO-K1 cells [1] = test: Batch fermentation in shake flasks of human IgG1 expressing stable cell populations (Poros A-HPLC titer, viable cell density, viability); assay type: cell-based, Chinese hamster; settings: human IgG1, pJF1576, non-selecting conditions
# Method: (§1) To efficiently test the impact of different procedures on improving selection stringency, experimental testing in stable cell populations was performed. As test molecules, enhanced green fluorescent protein (GFP) as well as a human IgG1 were chosen. CHO-K1 cells adapted to growth in suspension in defined medium were obtained from SAFC and cultivated in EX-CELL CD CHO Fusion medium (SAFC 14365C). Custom-made EX-CELL CD CHO Fusion medium without L-Proline (Pro) and without L-Ornithine (Orn) ("proline-free medium") was obtained from SAFC. The expression vector system was based on modified versions of "CET 1019 AS-puro-SceI" and "CET 1019 AD-puro-SceI" for GFP and human IgG1, respectively, from Merck-Millipore, containing the Puromycin selection marker (Puromycin N-acetyl-transferase) known to exert a high selection stringency. To minimize variations in cell populations derived from using different transfections or different vectors, the first series of experiments were conducted using vectors into which a P5CS expression cassette was cloned upstream of a UCOE element, in addition to the Puromycin selection marker present downstream of a gene of interest. This way, it was possible to pool different transfections using the same vector to obtain a common starting point, and split the mixture according to different selection conditions, minimizing any variations that are not due to selection conditions themselves. Expression of long and short isoform of murine P5CS (Protein: Delta-1-pyrroline-5-carboxylate synthase; Gene: Aldh18a1; UniProtKB accession number: Q9Z110-1 & Q9Z110-2) was driven by a SV40 promoter. A SV40 polyadenylation sequence was used at the 3' end of the gene. More details can be found in Table 1. Typically, CHO cells were cultivated in EX-CELL CD CHO Fusion medium containing 6 mM GlutaMAX (Thermo Fisher, 35050-38) ("CD-Fusion medium") at 37 °C with 5% CO2. Cells were grown to logarithmic phase under shaking conditions for transfections. 1e7 cells/cuvette were transfected using nucleofection (Amaxa Nucleofector II, following the manufacturer's recommendations) with 5 µg of linearized DNA. After transfection, cells were taken up in 1 ml medium and transferred into 1 well of a 6 well microtiter plate (MTP) already containing 1 ml medium. The cells were incubated for 24 h without shaking, after which 9 ml medium were added and cells were washed (either in standard or proline-free medium). Multiple transfections were pooled, if applicable. Cells were adjusted to 2e5 viable cells/ml and 10 ml were transferred to T-25 flasks. Reference cell populations were selected using 10 µg/ml Puromycin in CD-Fusion medium. For P5CS-based selection, EX-CELL CD CHO Fusion medium (custom-made, SAFC) containing 6 mM GlutaMAX without proline and without ornithine was used ("proline-free" or "CD-Fusion w/o Pro" medium), with or without additional selection pressure.
# (§2) Cell viability of the different populations was monitored over time. As soon as cell populations appeared to recover from selection pressure, cells were transferred to Shake Flask or TubeSpins for expansion in suspension under shaking conditions. Subsequently, stable cell populations transfected with IgG were seeded at 2e5 viable cells/ml for batch fermentation without selection pressure (i.e. standard CD-Fusion medium containing proline and no other selective agents). The cells were cultivated for 5-10 days, viable cell densities and productivity were monitored over time. IgG titers were determined using Poros A-HPLC method. Typically, final batch titers were recorded at a time point at which majority of cultures had around 70% viability. Stable cell populations transfected with GFP vector were subjected to analysis by flow cytometry using Guava easyCyte 8HT Benchtop Flow Cytometer (Millipore). 250 µl of cell culture were transferred to 96 MTP and washed with PBS. Dead cells were excluded from analysis using propidium iodide (PI). […]
# CHO-K1 cells [2] = test: Cell viability post-transfection of transfected cell populations under selection conditions; assay type: cell-based, Chinese hamster
# Method: as §1, §2
# [3] = MOCK, CD-Fusion w/o Pro + 5 mM Orn
structure (smiles),measurement,setting,value
"NCCC[C@H](N)C(=O)O [Orn, L-Ornithine]",Batch titer day 7,CHO-K1 cells [1]; selected in CD-Fusion w/o Pro + 0.2 mM Orn + 10 µg/ml Puromycin,173 mg/L
same,Batch titer day 7,CHO-K1 cells [1]; selected in CD-Fusion w/o Pro + 0.2 mM Orn,120 mg/L
same,Batch titer day 7,CHO-K1 cells [1]; selected in CD-Fusion w/o Pro + 1 mM Orn + 10 µg/ml Puromycin,159 mg/L
same,Batch titer day 7,CHO-K1 cells [1]; selected in CD-Fusion w/o Pro + 1 mM Orn,135 mg/L
same,Batch titer day 7,CHO-K1 cells [1]; selected in CD-Fusion w/o Pro + 5 mM Orn + 10 µg/ml Puromycin,38 mg/L
same,Batch titer day 7,CHO-K1 cells [1]; selected in CD-Fusion w/o Pro + 5 mM Orn,9 mg/L
same,Viability on day 12 post-transfection,CHO-K1 cells [2]; [3],45%
same,Viability on day 14 post-transfection,CHO-K1 cells [2]; [3],43%
same,Viability on day 14 post-transfection,"CHO-K1 cells [2]; pJF1555, CD-Fusion w/o Pro + 0.2 mM Orn",83%
same,Viability on day 14 post-transfection,"CHO-K1 cells [2]; pJF1555, CD-Fusion w/o Pro + 0.2 mM Orn + 10 µg/ml Puromycin",73%
same,Viability on day 12 post-transfection,"CHO-K1 cells [2]; pJF1555, CD-Fusion w/o Pro + 0.25 mM Ornithine",88%
same,Viability on day 12 post-transfection,"CHO-K1 cells [2]; pJF1555, CD-Fusion w/o Pro + 0.5 mM Ornithine",87%
same,Viability on day 14 post-transfection,"CHO-K1 cells [2]; pJF1555, CD-Fusion w/o Pro + 1 mM Orn",87%
same,Viability on day 14 post-transfection,"CHO-K1 cells [2]; pJF1555, CD-Fusion w/o Pro + 1 mM Orn + 10 µg/ml Puromycin",75%
same,Viability on day 12 post-transfection,"CHO-K1 cells [2]; pJF1555, CD-Fusion w/o Pro + 1 mM Ornithine",91%
same,Viability on day 12 post-transfection,"CHO-K1 cells [2]; pJF1555, CD-Fusion w/o Pro + 2 mM Ornithine",49%
same,Viability on day 12 post-transfection,"CHO-K1 cells [2]; pJF1555, CD-Fusion w/o Pro + 3 mM Ornithine",36%
same,Viability on day 12 post-transfection,"CHO-K1 cells [2]; pJF1555, CD-Fusion w/o Pro + 4 mM Ornithine",55%
same,Viability on day 14 post-transfection,"CHO-K1 cells [2]; pJF1555, CD-Fusion w/o Pro + 5 mM Orn",51%
same,Viability on day 14 post-transfection,"CHO-K1 cells [2]; pJF1555, CD-Fusion w/o Pro + 5 mM Orn + 10 µg/ml Puromycin",13%
same,Viability on day 12 post-transfection,"CHO-K1 cells [2]; pJF1555, CD-Fusion w/o Pro + 5 mM Ornithine",53%
same,concentration at which recovery kinetics were affected,"CHO-K1 cells [2]; pJF1555, proline-free medium, Table 8",≥ 2 mM

# Reference: patent EP3521435A1, “A HIGH STRINGENCY SELECTION SYSTEM FOR PROTEIN EXPRESSION IN PROLINE-AUXOTROPHIC CELLS” (Bayer AG, priority 2018, dated 2019)
